Several values for one entry are separate records, joined by “and”; a condition that tells them apart may be missing. Equal entries are not always repeated. Where two headings read alike, the source gives them in different places. Where a SMILES comes first, the peptide text is derived from it. The star is where a group is joined. Cbz = O=C(OCc1ccccc1)*
Assays:
calpain [1] = conditions: broken membrane preparations; cited from earlier work
calpain [2] = conditions: cited from earlier work
rats = conditions: cited from earlier work
[3] = test system: proteolytic response to post-decapitation ischemia; conditions: cited from earlier work
[4] = molecular target: Muscle and erythrocyte calpain; test: In Vitro Assay of Calpain (fluorometric, t-Boc-Val-Leu-Lys-7-amido-4-methyl-coumarin substrate); type: biochemical; conditions: In Vitro Calpain Inhibition
Protocol: In Vitro Assay of Calpain in the Prescence of Calpain Inhibitors
Muscle and erythrocyte calpain were assayed by a fluorometric procedure using t-Boc-Val-Leu-Lys-7-amido-4-methyl-coumarin as the substrate, Sasaki et al., J. Biol. Chem. 259, 12489-12494 (1984). The enzyme calpain is commercially available and may be purchased from Sigma. The assay buffer, pH, assay techniques and calculation of the inhibitory constant (Ki) are similar to those described by Mehdi et al., Biochem. Biophys. Res. Commun. 157, 1117-1123 (1988).

[5] = test system: male spontaneously hypertensive rats; test: Neuroprotection in vivo, focal cerebral ischemia by permanent tandem occlusion of right middle cerebral artery and right common carotid artery; set-up: species or system rat (spontaneously hypertensive)
Protocol: Neuroprotection In Vivo With MDL 104,903 In a Model of Focal Cerebral Ischemia
For example, twelve male spontaneously hypertensive rats were divided into two groups: a vehicle-treated group and a calpain inhibitor-treated groups (MDL 104,903; 4×30 mg/kg cumulative doses). Ischemia was induced by permanent tandem occlusion of the right middle cerebral artery and right common carotid artery. Animals were killed 24 hours after surgery, and quantitative measurements of infarction volumes were performed using standard histological techniques and quantitative image analysis.

[6] = individual animal, inhibitor-treated group, 4×30 mg/kg I.V., 24 hours after surgery, 30 mg/kg

## CC(C)[C@H](NC(=O)OCc1ccccc1)C(=O)N[C@H](C=O)Cc1ccccc1 [Cbz-Val-Phe-H] (Cbz-Val-Phe-aldehyde)
Calpain [1]
  Ki for calpain: low
Calpain [2]; inhibitor of calpain
  cell penetration: cell-penetrating
Calpain [2]; intact cell systems
  Ki for calpain: low
rats; intravenous injections, cumulative doses of 30 mg/kg or 60 mg/kg
  reduction of infarction, edema, and calcium-activated proteolysis: effective in reducing infarction, edema, and calcium-activated proteolysis
rats; rats, versus saline-treated or vehicle-treated control animals
  volumes of cerebral infarction: significantly smaller
[3]
  proteolytic response to post-decapitation ischemia: reduced

## CCCC(=O)O[C@@H]1OCN(C(=O)[C@@H](NC(=O)OCc2ccccc2)C(C)C)[C@H]1Cc1ccccc1 [MDL 103,821, [4S-[3(R*),4α,5β]]-[1-[[5-butyryloxy)-4-(phenylmethyl)-3-oxazolidinyl]carbonyl]-2-methylpropyl]-carbamic acid, phenylmethyl ester]
[4]
  Ki: 1300 nM

## CCCCC(CC)C(=O)O[C@@H]1OCN(C(=O)[C@@H](NC(=O)OCc2ccccc2)C(C)C)[C@H]1Cc1ccccc1 (stereo partly drawn) [MDL 104,092, [4S-[3(R*),4α,5β]]-[1-[[5-(2-ethylhexanoyl-oxy)-4-(phenylmethyl)-3-oxazolidinyl]carbonyl]-2-methylpropyl]-carbamic acid, phenylmethyl ester]
[4]
  Ki: 300 nM

## CC(=O)O[C@@H]1OCN(C(=O)[C@@H](NC(=O)OCc2ccccc2)C(C)C)[C@H]1Cc1ccccc1 [MDL 104,860, [4S-[3(R*),4α,5β]]-[1-[[5-(acetyloxy)-4-(phenylmethyl)-3-oxazolidinyl]carbonyl]-2-methylpropyl]carbamic acid, phenylmethyl ester]
[4]
  Ki: 1450 nM

## CC(C)[C@H](NC(=O)OCc1ccccc1)C(=O)N1CO[C@@H](O)[C@@H]1Cc1ccccc1 [MDL 104,903, [4S-[3(R*),4α,5β]]-[1-[[5-hydroxy-4-(phenylmethyl)-3-oxazolidinyl]carbonyl]-2-methylpropyl]-carbamic acid, phenylmethyl ester]
[4]
  Ki: 33 nM
[5]; 4×30 mg/kg I.V. doses via femoral vein at 2 hour intervals beginning 5 min. after initiation of ischemia, 24 hours after surgery
  reduction in infarct volume: 20.5%
[5]; comparison of mean values with vehicle group, 4×30 mg/kg I.V.
  % of Reduction (Percentage of Infarct Reduction): 20.24%
[5]; individual animal, inhibitor-treated group, 4×30 mg/kg I.V. at 2 hour intervals from 5 min after ischemia, 24 hours after surgery, 30 mg/kg
  Brain Volume: 1307.52 mm^3 and 1309.36 mm^3 and 1257.24 mm^3 and 1313.62 mm^3 and 1333.44 mm^3 and 1326.46 mm^3
[5]; [6]
  Infarct Vol. v. Brain Vol.: 12.61% and 14.14% and 13.59% and 10.07% and 10.93%
  Infarct Volume: 164.94 mm^3 and 185.16 mm^3 and 170.84 mm^3 and 178.58 mm^3 and 134.28 mm^3 and 144.92 mm^3
[5]; mean of inhibitor-treated group (animals 7-12), 4×30 mg/kg I.V., vehicle mean 15.66
  Infarct Vol. v. Brain Vol., mean: 12.49%
[5]; mean of inhibitor-treated group (animals 7-12), 4×30 mg/kg I.V., vehicle mean 205.14
  Infarct Volume, mean: 163.12 mm^3
[5]; mean of inhibitor-treated group (animals 7-12), 4×30 mg/kg I.V., vehicle mean 1310.15
  Brain Volume, mean: 1307.94 mm^3

## COc1ccc(CC(=O)O[C@@H]2OCN(C(=O)[C@@H](NC(=O)OCc3ccccc3)C(C)C)[C@H]2Cc2ccccc2)cc1 [MDL 105,236, [4S-[3(R*),4α,5β]]-[1-[[5-(4-methoxyphenyl-acetyloxy)--4-(phenylmethyl)-3-oxazolidinyl]carbonyl]-2-methylpropyl-1]-carbamic acid, phenylmethyl ester]
[4]
  Ki: 1100 nM

## CC(C)[C@@H](C(=O)N1CO[C@@H](O)[C@@H]1Cc1ccccc1)N(C)C(=O)OCc1ccccc1 [MDL 105,423, [4S-[3(R*),4α,5β]]-[1-[[5-hydroxy-4-(phenylmethyl-3-oxazolidinyl]carbonyl]-2-methylpropyl]methyl-carbamic acid, phenylmethyl ester]
[4]
  Ki: 2100 nM

## CCOC(=O)CCC(=O)O[C@@H]1OCN(C(=O)[C@@H](NC(=O)OCc2ccccc2)C(C)C)[C@H]1Cc1ccccc1 [MDL 105,608, [4S-[3(R*),4α,5β]]-[1-[[5-(ethylsuccinyloxy)-4-(phenylmethyl)-3-oxazolidinyl]carbonyl]-2-methylpropyl]-carbamic acid, phenylmethyl ester]
[4]
  Ki: 700 nM

## CC(C)[C@H](NC(=O)OCc1ccccc1)C(=O)N1CO[C@@H](OC(=O)N2CCOCC2)[C@@H]1Cc1ccccc1 [MDL 105,803, [4S-[3(R*),4α,5β]]-3-[3-methyl-1-oxo-2-[[(phenylmethoxy)carbonyl]amino]butyl]-4-(phenylmethyl)-5-oxazolidinyl ester, 4-morpholinecarboxylic acid]
[4]
  Ki: 2000 nM

## [4S-[3(R*),4α,5β]]-[1-[[5-(propionyloxy)-4-(phenylmethyl)-3-oxazolidinyl]carbonyl]-2-methylpropyl]-carbamic acid, phenylmethyl ester [MDL 105,387]
[4]
  Ki: 1200 nM
